# Data taken from patent US6838477B2, “Lactacystin analogs” (President and Fellows of Harvard College, priority 1995, dated 2005).
# Entries after “also recorded” stand apart in the source; their conditions may differ. Peptide text beside a SMILES is read from it. * marks the point of attachment. Cbz = O=C(OCc1ccccc1)*
# Experiments:
# [1] = target: T1, 20S proteasome chymotrypsin-like activity (Bos taurus, UniProt Q32KL2); assay: Kinetics of inhibition of 20S proteasome chymotrypsin-like activity (Suc-LLVY-AMC); assay type: biochemical, bovine; details: for κassoc = κobs/[I], Chymotrypsin-like activity (Suc-LLVY-AMC): 25° C.
# T1 construct: from tissue; host or cells: bovine brain
# Method: (§1) Experiments involving the proteasome were performed as follows: 20S proteasome (˜5 ng/μl) in 10 mM Tris-HCl, pH 7.5, 1 mM EDTA was incubated at 25° C. in the presence of lactacystin or lactacystin analogs in DMSO or MeOH [not exceeding 5% (v/v)]. Aliquots for fluorescence assay were removed at various times following addition of compound and diluted in 10 mM Tris-HCl, pH 7.5, 1 mM EDTA containing fluorogenic peptide substrates (100 μM final). Suc-LLVY-AMC, Cbz-GGR-βNA and […] (AMC=7-amido-4-methylcoumarin; βNA=β-naphthylamide) were used to assay for the chymotrypsin-like, trypsin-like and peptidylglutamyl-peptide hydrolyzing activities, respectively.
# (§2) Fluorescent emission at 460 nm with excitation at 380 nm was measured for AMC-containing substrates, and emission at 410 nm with excitation at 335 nm was measured for βNA-containing substrates. The fluorescence assays were conducted at 25° C., each experiment was performed at least three times, and values represent mean±standard deviation.
# (§3) The reversibility of the inhibitory effects was assessed by measuring residual peptidase activity after removal of excess inhibitor by extensive serial dilution/ultrafiltration.
# [2] = test system: p105 to p50 processing; assay: Proteasome dependent p105 to p50 processing in transfected COS cells (pulse-chase); assay type: cell-based, African green monkey; details: 50 μM, 1 h pretreatment, 2 hour chase
# Method: COS cells were plated onto 100 mm dishes, then, with DEAE-Destran, either mock transfected, or transfected with 3 μg of pcDNA plasmid containing the human p105 cDNA. Forty-eight hrs after transfection, cells were pretreated for 1 hour with 0.5% DMSO, 50 μM calpain inhibitor II, 50 μM MG132, or 10 μM β-lactone. Cells were then pulse labelled with 250 uCi/plate of ^35S-methionine/cysteine for 15 minutes, and either harvested immediately or followed by a 2 hour chase with excess unlabelled methionine and cysteine. Cells were then lysed with SDS/Tris, and proteins were immunoprecipitated with anti-p50 antibodies (recognize the N-terminal half of the p105 protein). These proteins were then separated on a 10% SDS-polyacrylamide gel, which was then fixed, dried, and exposed to autoradiographic film.
# [3] = target: T2, 20S proteasome trypsin-like activity (Bos taurus, UniProt Q2TBP0); assay: Kinetics of inhibition of 20S proteasome trypsin-like activity (Cbz-GGR-βNA); assay type: biochemical, bovine
# T2 construct: from tissue; host or cells: bovine brain
# Method: as §1, §2, §3
# [4] = target: 20S proteasome peptidylglutamyl-peptide hydrolyzing activity (Bos taurus, UniProt Q3MHN0)
# Method: as §1, §2, §3
# [5] = target: α-Chymotrypsin (Bos taurus, UniProt P00766, DEL14-15/DEL147-148); assay: Selectivity of protease inhibition: α-chymotrypsin; assay type: biochemical
# [6] = target: T3, Trypsin (Bos taurus, UniProt P00760); assay: Selectivity of protease inhibition: trypsin; assay type: biochemical
# T3 construct: gene PRSS1
# T3 sequence (P00760 24-246): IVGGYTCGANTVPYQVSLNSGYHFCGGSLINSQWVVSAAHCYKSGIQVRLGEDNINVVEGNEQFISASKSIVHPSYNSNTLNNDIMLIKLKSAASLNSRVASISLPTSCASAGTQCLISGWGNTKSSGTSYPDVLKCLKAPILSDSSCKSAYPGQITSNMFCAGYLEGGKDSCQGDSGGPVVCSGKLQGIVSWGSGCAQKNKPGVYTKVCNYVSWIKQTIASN
# [7] = target: T4, Calpain I (Homo sapiens, UniProt P07384); assay: Selectivity of protease inhibition: calpain I; assay type: biochemical
# T4 sequence (P07384 1-714): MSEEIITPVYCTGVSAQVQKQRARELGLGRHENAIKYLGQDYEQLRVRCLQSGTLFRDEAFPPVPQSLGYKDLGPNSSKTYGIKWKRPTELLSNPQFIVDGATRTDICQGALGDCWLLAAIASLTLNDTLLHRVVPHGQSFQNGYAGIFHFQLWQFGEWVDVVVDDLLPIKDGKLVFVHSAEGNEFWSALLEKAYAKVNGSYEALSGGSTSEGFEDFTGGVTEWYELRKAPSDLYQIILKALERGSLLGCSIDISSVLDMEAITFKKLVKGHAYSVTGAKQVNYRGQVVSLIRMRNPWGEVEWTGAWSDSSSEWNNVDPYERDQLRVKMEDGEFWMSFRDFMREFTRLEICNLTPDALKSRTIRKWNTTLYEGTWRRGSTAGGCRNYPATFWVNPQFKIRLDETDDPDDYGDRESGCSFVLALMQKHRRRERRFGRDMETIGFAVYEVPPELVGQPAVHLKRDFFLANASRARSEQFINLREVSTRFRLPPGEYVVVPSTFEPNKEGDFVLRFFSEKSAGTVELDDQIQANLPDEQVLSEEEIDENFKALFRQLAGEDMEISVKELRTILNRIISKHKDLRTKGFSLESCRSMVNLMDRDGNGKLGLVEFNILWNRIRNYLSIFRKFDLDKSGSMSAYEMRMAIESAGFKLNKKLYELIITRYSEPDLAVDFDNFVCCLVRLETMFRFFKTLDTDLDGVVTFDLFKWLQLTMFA
# T4 sequence (P04632 1-268 partner): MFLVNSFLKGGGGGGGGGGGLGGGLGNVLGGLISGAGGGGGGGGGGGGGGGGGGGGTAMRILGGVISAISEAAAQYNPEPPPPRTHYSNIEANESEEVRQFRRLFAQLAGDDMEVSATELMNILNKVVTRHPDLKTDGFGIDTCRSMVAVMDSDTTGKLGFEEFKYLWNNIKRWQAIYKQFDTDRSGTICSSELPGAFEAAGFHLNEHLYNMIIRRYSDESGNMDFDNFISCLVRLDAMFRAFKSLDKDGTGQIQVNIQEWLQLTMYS
# [8] = target: T5, Calpain II (Homo sapiens, UniProt P17655); assay: Selectivity of protease inhibition: calpain II; assay type: biochemical
# T5 sequence (P17655 1-700): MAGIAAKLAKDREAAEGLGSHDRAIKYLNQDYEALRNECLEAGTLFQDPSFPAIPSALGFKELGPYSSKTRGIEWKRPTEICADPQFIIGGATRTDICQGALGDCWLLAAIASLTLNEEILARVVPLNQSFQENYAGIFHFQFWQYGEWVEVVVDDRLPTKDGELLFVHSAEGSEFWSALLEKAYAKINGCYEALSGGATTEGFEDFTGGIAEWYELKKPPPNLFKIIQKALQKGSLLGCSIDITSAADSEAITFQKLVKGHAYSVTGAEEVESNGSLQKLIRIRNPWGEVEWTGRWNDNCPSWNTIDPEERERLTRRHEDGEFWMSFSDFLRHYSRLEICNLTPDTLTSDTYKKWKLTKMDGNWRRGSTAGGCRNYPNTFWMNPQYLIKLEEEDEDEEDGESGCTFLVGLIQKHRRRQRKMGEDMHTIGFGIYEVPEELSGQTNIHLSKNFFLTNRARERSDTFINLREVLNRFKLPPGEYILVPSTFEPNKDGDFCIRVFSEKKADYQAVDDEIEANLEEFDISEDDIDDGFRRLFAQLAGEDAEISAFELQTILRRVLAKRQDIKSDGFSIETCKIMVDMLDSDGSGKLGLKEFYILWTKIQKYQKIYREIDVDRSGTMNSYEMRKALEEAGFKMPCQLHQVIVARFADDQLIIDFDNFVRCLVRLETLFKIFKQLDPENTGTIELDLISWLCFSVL
# T5 sequence (P04632 1-268 partner): T4 sequence (P04632 1-268 partner)
# [9] = target: T6, Papain (Carica papaya, UniProt P00784); assay: Selectivity of protease inhibition: papain; assay type: biochemical
# T6 sequence (P00784 134-345): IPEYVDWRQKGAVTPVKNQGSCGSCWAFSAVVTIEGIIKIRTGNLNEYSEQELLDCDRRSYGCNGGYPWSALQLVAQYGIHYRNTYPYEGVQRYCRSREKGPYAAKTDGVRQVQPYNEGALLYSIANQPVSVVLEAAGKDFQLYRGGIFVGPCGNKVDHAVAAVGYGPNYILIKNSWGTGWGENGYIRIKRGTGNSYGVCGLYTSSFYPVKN
# [10] = target: Cathepsin B (Homo sapiens, UniProt P07858); assay: Selectivity of protease inhibition: cathepsin B; assay type: biochemical
# [11] = target: T7, 20S proteasome (Bos taurus, UniProt Q2TBP0+Q32KL2); assay: Labeling of 20S proteasome subunits by tritiated compound, reverse-phase HPLC separation; assay type: binding, bovine
# T7 construct: from tissue; host or cells: bovine brain
# Method: This peak was isolated and treated with 10 μM [^3H]lactacystin or 10 μM [^3H]β-lactone for 24 h at 25° C. Trifluoroacetic acid (TFA) was added to 0.1%, and the sample was allowed to stand at room temperature for 20 min. Reverse-phase HPLC was then carried out at room temperature using a Vydac C4 column (300 Å/4.6×150 mm) with 20-40% acetonitrile/0.1% TFA over 10 min and then 40-55% acetonitrile/0.1% TFA over 30 min (flow rate=0.8 ml/min). An IN/US β-RAM in-line scintillation detector was used to monitor radioactivity.
# [12] = test system: IκB-α; assay: TNF-α dependent degradation of IκB-α in Hela cells (immunoblot); assay type: cell-based, human; details: 40 μM, 1 h pretreatment, 1,000 U/ml TNF-α
# Method: Hela cells were plated onto 6-well plates in DME plus 10% fetal calf serum (3 mls/well). Cells were then pretreated with 0.125% DMSO 40 μM […] (carbobenzoxyl-leucinyl-leucinyl-leucinal-H)(40 μM, lanes 103), or 5 μM β-lactone for one hour, followed by treatment with 1,000 U/ml TNF-α or phosphate buffered saline (PBS). Cells were harvested after 0 min, 20 min, or 40 min of further incubation at 37° C. Cells were then lysed in buffer containing NP-40 and protease inhibitors, and the proteins separated on a 10% SDS-polyacrylamide gel. The proteins were then transferred to nitrocellulose and probed with antibodies against the C-terminal 20 amino acids of human IκB-α.
# [13] = test system: PC12 cells; details: Tsubuki et al. 1993; cited from earlier work
# [14] = residual activity after removal of excess inhibitor by serial dilution/ultrafiltration
# [15] = relative to kassoc for chymotrypsin-like activity
molecule,measurement,setting,value
6-deoxylactacystin,"κassoc = κobs/[I], Chymotrypsin-like activity (Suc-LLVY-AMC)",[1]; compound 12.5 μM,No inhibition
CSCC[C@@H](C=O)NC(=O)[C@H](CC(C)C)NC(=O)[C@H](CC(C)C)NC(C)=O [calpain inhibitor II] (Ac-Leu-Leu-Met-aldehyde),processing of p105 to p50 (appearance of p50),[2],no effect
"CC(=O)N[C@@H](CSC(=O)[C@]1([C@@H](O)C(C)C)NC(=O)[C@H](C)[C@@H]1O)C(=O)O [Lactacystin, lactacystin]","κassoc = κobs/[I], Chymotrypsin-like activity (Suc-LLVY-AMC)",[1]; compound 10 μM,194 ± 15 s^−1M^−1
same,kinact/KI,"[1]; read-out: kassoc, apparent second-order rate constant for association, chymotrypsin-like activity",194 ± 15 M⁻¹ s⁻¹
same,reversibility of inhibition of chymotrypsin-like activity,[1]; [14],irreversibly; also recorded: still completely inhibited
same,"κassoc = κobs/[I], Trypsin-like activity (Cbz-GGR-βNA)","[3]; compound 10 μM, 25° C.",10.1 ± 1.8 s^−1M^−1
same,trypsin-like activity inhibited more slowly than chymotrypsin-like activity,[3]; [15],20 fold
same,reversibility of inhibition of trypsin-like activity,[3]; [14],irreversibly; also recorded: still completely inhibited
same,"κassoc = κobs/[I], Peptidylglutamyl-peptide hydrolyzing activity (Cbz-LLE-βNA)","[4]; compound 100 μM, 25° C.",4.2 ± 0.6 s^−1M^−1
same,PGPH activity inhibited more slowly than chymotrypsin-like activity,[4]; [15],50 fold
same,reversibility of inhibition of PGPH activity,[4]; [14],reversibly; also recorded: return of the catalytic activity
same,Effect of lactacystin (100 μM) on α-Chymotrypsin,"[5]; 100 μM, Suc-LLVY-AMC, 25° C.",No inhibition
same,inhibition of α-chymotrypsin activity,[5]; concentration not given,do not inhibit
same,Effect of lactacystin (100 μM) on Trypsin,"[6]; 100 μM, Cbz-GGR-βNA, 25° C.",No inhibition
same,inhibition of trypsin activity,[6]; concentration not given,do not inhibit
same,Effect of lactacystin (100 μM) on Calpain I,"[7]; 100 μM, Suc-LLVY-AMC, 25° C.",No inhibition
same,inhibition of calpain I activity,[7]; concentration not given,do not inhibit
same,Effect of lactacystin (100 μM) on Calpain II,"[8]; 100 μM, Suc-LLVY-AMC, 25° C.",No inhibition
same,inhibition of calpain II activity,[8]; concentration not given,do not inhibit
same,Effect of lactacystin (100 μM) on Papain,"[9]; 100 μM, Cbz-RR-AMC, 25° C.",No inhibition
same,inhibition of papain activity,[9]; concentration not given,do not inhibit
same,Effect of lactacystin (100 μM) on Cathepsin B,"[10]; 100 μM, Cbz-RR-AMC, 25° C.",No inhibition
same,inhibition of cathepsin activity,[10]; concentration not given,do not inhibit
"CC(=O)NC(CSC(=O)C1(C(O)C(C)C)NC(=O)C(C)C1O)C(=O)O [(6R,7S)Lactacystin (6-epi,7-epi), (6R,7S)-lactacystin]","κassoc = κobs/[I], Chymotrypsin-like activity (Suc-LLVY-AMC)",[1]; compound 12.5 μM,No inhibition
CC(=O)N[C@@H](CSC(=O)[C@]1([C@@H](O)C(C)C)NC(=O)[C@H](C)[C@@H]1O)C(=O)O [[^3H]lactacystin],association of radioactivity with HPLC-separated proteasome subunit peaks,"[11]; 10 μM, 24 h at 25° C., first peak ~32 kDa (α chain), second peak ~24 kDa (X/MB1)",exclusively with the first two peaks
same,labeling of the first peak (~32 kDa protein),[11]; 24 hour reaction,significant labeling
"CC(C)C[C@@H](C=O)NC(=O)[C@H](CC(C)C)NC(=O)[C@H](CC(C)C)NC(=O)OCc1ccccc1 [MG132, carbobenzoxyl-leucinyl-leucinyl-leucinal-H] (Cbz-Leu-Leu-Leu-aldehyde)",degradation of IκB after TNF induction,[12],blocks the degradation
same,phosphorylated form of IκB,[12],stabilizes the phosphorylated form
same,processing of p105 to p50 (appearance of p50),[2],completely blocks the appearance of p50
same,optimal concentration for inducing neurite outgrowth,[13],30 nM
